Read-outs that look alike come from different tables or passages of the source.
Key:
Alpo5-wt = assay: Two-electrode voltage clamp (TEVC) on Alpo5-wt expressed in Xenopus laevis oocytes; type: cell-based, Alvinella pompejana; settings: for Hill coefficient / EC50: concentration-activation curve, n = 4; for EC50: Hill fit, -80 mV
Protocol: (§1) For the expression in Xenopus laevis oocytes, the genes coding for AlpoX-wt were subcloned into the vector pGEM-HE [38]. After NheI-treatment, the linearized plasmid DNA was transcribed to produce capped RNA by using the T7 mMESSAGE-mMACHINE transcription kit (Ambion). Four nanogram of the resulting RNA was injected into the cytosol of stage V and VI oocytes either manually or with an automated injection system (Roboinject, MultiChannelSystems). Oocyte preparations and injections were done using standard procedures.
(§2) One to five days after injection, electrophysiological recordings were performed by conventional or automated TEVC (HiClamp, MultiChannel Systems). […] Unless indicated otherwise, cells were held at a fixed potential of –80 mV throughout the experiment. To minimize heat shock, all preparation and recording procedures were carried out at 16°C [40]. Functional characterization consisted of the screening of potential ligands, the establishment of concentration-activation curves and the determination of ion selectivity. Different small molecules were tested for their effects on AlpoX-wt, such as dopamine, taurine, γ-aminobutyric acid (GABA), glycine and ivermectin (the complete list and the corresponding concentrations are mentioned in Table 1). To determine concentration-activation curves, cells were exposed to increasing concentrations of the test substance. To assess ion selectivity, current-voltage (I-V) relationships were determined in control OR2 solution as well as in medium in which chloride ions were substituted by gluconate. These I-V curves were generated by voltage ramps applied within 4 s and constructed around the reversal potential (Erev ± 80 mV). Leak properties of the cells measured in control conditions were subtracted from the I-V curves measured during exposure to 10 mM GABA.
(§3) Data were acquired either on a manual setup or on an automated recording system (HiClamp, MultiChannel Systems). […] Data acquired with the HiClamp were analyzed using the corresponding software.

Alpo6-wt = assay: Two-electrode voltage clamp (TEVC) on Alpo6-wt expressed in Xenopus laevis oocytes; type: cell-based, Alvinella pompejana; settings: for Hill-coefficients: activation-response curves; for EC50: concentration-activation curve
Protocol: as §1, §2, §3

[1] = target: Alpo4-wt (Alvinella pompejana); assay: negative stain EM; purified protein 0.03 mg/mL on carbon-coated copper grids, 1% uranyl formate, 120 kV; 2D class averages for Alpo4-wt

In the case of `NCCCC(=O)O` [GABA, γ-aminobutyric acid], the agonist type (Alpo5-wt) is reported as “full-agonists”, the Hill coefficient (Alpo5-wt) is reported as 2.49 ± 0.09 and the agonist type (Alpo6-wt) is reported as “partial agonistic effect”. The Hill-coefficients (Alpo6-wt) was 1.94 ± 0.15 and the “current evoked by a saturating concentration relative to current evoked by a saturating concentration of glycine” value (Alpo6-wt; on average) was 86%.
For `NCC(=O)O` [glycine], the agonist type (Alpo5-wt) was “full-agonists”, the EC50 (Alpo5-wt) was 291 ± 16.4 µM and the Hill coefficient (Alpo5-wt) was 2.68 ± 0.08. The agonist type (Alpo6-wt) was “full agonists”, the Hill-coefficients (Alpo6-wt) was 2.20 ± 0.16 and the EC50 (Alpo6-wt; n = 3, read-out: EC50 values) was 22100 ± 4530 µM.
With `NCCS(=O)(=O)O` [taurine] the agonist type (Alpo5-wt) was “partial agonist”, the EC50 (Alpo5-wt) was 370 ± 30.2 µM and the Hill coefficient (Alpo5-wt) was 2.51 ± 0.18. The “currents evoked at a saturating concentration relative to responses evoked by a saturating concentration of glycine” value (Alpo5-wt; on average) was 74%, the agonist type (Alpo6-wt) was “full agonists” and the Hill-coefficients (Alpo6-wt) was 1.87 ± 0.12. The EC50 (Alpo6-wt; n = 3, read-out: EC50 value) was 227 ± 30.5 µM.
Work on Alpo4-wt (receptor) yielded a stoichiometry N [1] of 5.

Source: PMC4801368, “Functional and Biochemical Characterization of Alvinella pompejana Cys-Loop Receptor Homologues” (PLoS ONE, 2016)
